Earlier results, collected in publication PMC8513935.

What was measured:
[1] = log P octanol/water from commercial databases, averaged (the ESI); conditions: Octanol (wet), 25 C
[2] = experimental, compiled by the authors from the literature (the ESI cites the sources)
[3] = derived by the authors as gas->solvent minus gas->water (a hypothetical dry solvent; the ESI), not a two-phase measurement

Structure (SMILES)	log K of transfer, water to solvent [1] [log10 K]	log K of transfer, gas to solvent ([2]; 1,2-Dichloroethane, 25 C) [log10 K]	log K of transfer, gas to solvent ([2]; CCl4, 25 C) [log10 K]	log K of transfer, gas to solvent ([2]; Chlorobenzene, 25 C) [log10 K]	log K of transfer, gas to solvent ([2]; Chloroform, 25 C) [log10 K]	log K of transfer, gas to solvent ([2]; Di-n-butyl ether, 25 C) [log10 K]	log K of transfer, gas to solvent ([2]; Hexadecane, 25 C) [log10 K]	log K of transfer, gas to solvent ([2]; Hexane, 25 C) [log10 K]	log K of transfer, gas to solvent ([2]; Octan-1-ol, 25 C) [log10 K]	log K of transfer, gas to solvent ([2]; Propan-1-ol, 25 C) [log10 K]	log K of transfer, gas to solvent ([2]; Propanone, 25 C) [log10 K]	log K of transfer, gas to solvent ([2]; Water, 25 C) [log10 K]	log K of transfer, water to solvent ([3]; 1,2-Dichloroethane, 25 C) [log10 K]	log K of transfer, water to solvent ([3]; Acetone, 25 C) [log10 K]	log K of transfer, water to solvent ([3]; CCl4, 25 C) [log10 K]	log K of transfer, water to solvent ([3]; Chlorobenzene, 25 C) [log10 K]	log K of transfer, water to solvent ([3]; Chloroform, 25 C) [log10 K]	log K of transfer, water to solvent ([3]; Hexadecane, 25 C) [log10 K]	log K of transfer, water to solvent ([3]; Hexane, 25 C) [log10 K]	log K of transfer, water to solvent ([3]; Octan-1-ol(dry), 25 C) [log10 K]	other results
C1CCOC1	0.46	3.32	3.13	2.97	3.86	2.79	2.63	2.7	2.86	2.9	3.02	2.56	0.76	0.46	0.57	0.41	1.3	0.076	0.14	0.3	log K of transfer, gas to solvent ([2]; Methanol, 25 C): 3.25 log10 K; log K of transfer, gas to solvent ([2]; Propan-2-ol, 25 C): 2.89 log10 K; log K of transfer, gas to solvent ([2]; Tetrahydrofuran, 25 C): 3.14 log10 K; log K of transfer, water to solvent ([3]; Di-n-butyl ether, 25 C): 0.23 log10 K; log K of transfer, water to solvent ([3]; Methanol, 25 C): 0.69 log10 K; log K of transfer, water to solvent ([3]; Propan-1-ol, 25 C): 0.34 log10 K; log K of transfer, water to solvent ([3]; Propan-2-ol, 25 C): 0.33 log10 K; log K of transfer, water to solvent ([3]; Tetrahydrofuran, 25 C): 0.58 log10 K
Clc1cccc(Cl)c1	3.6	–	4.55	–	4.59	–	4.41	4.53	4.13	–	–	0.72	–	–	3.83	–	3.87	3.69	3.81	3.41	–
CCC(C)C	3.19	–	–	–	–	–	2.01	–	–	–	–	-1.75	–	–	–	–	–	3.76	–	–	log K of transfer, gas to solvent ([2]; 2-Methylpropan-2-ol, 25 C): 1.88 log10 K; log K of transfer, gas to solvent ([2]; Cyclohexanone, 25 C): 1.89 log10 K; log K of transfer, water to solvent ([3]; 2-Methylpropan-2-ol, 25 C): 3.63 log10 K; log K of transfer, water to solvent ([3]; Cyclohexanone, 25 C): 3.64 log10 K
Cc1cccc(C)n1	1.68	–	–	–	5.68	–	3.76	–	–	–	–	3.37	–	–	–	–	2.31	0.39	–	–	log K of transfer, gas to solvent ([2]; Benzene, 25 C): 4.69 log10 K; log K of transfer, gas to solvent ([2]; Cyclohexane, 25 C): 4.04 log10 K; log K of transfer, water to solvent ([3]; Benzene, 25 C): 1.32 log10 K; log K of transfer, water to solvent ([3]; Cyclohexane, 25 C): 0.67 log10 K
Cc1ccc(C)cc1	3.15	4.37	4.2	–	–	–	3.84	–	3.79	–	–	0.59	3.78	–	3.61	–	–	3.25	–	3.2	log K of transfer, gas to solvent ([2]; 2-Methylpropan-1-ol, 25 C): 3.62 log10 K; log K of transfer, gas to solvent ([2]; Cyclohexane, 25 C): 3.86 log10 K; log K of transfer, gas to solvent ([2]; Ethanol, 25 C): 3.73 log10 K; log K of transfer, water to solvent ([3]; 2-Methylpropan-1-ol, 25 C): 3.03 log10 K; log K of transfer, water to solvent ([3]; Cyclohexane, 25 C): 3.27 log10 K; log K of transfer, water to solvent ([3]; Ethanol, 25 C): 3.14 log10 K
CCCCCl	2.64	3.25	3.16	3.19	–	3.01	2.72	2.95	2.72	2.63	3.12	0.12	3.13	3	3.04	3.07	–	2.6	2.83	2.6	log K of transfer, gas to solvent ([2]; 2-Methylpropan-1-ol, 25 C): 2.73 log10 K; log K of transfer, gas to solvent ([2]; 2-Methylpropan-2-ol, 25 C): 2.71 log10 K; log K of transfer, gas to solvent ([2]; Butan-2-ol, 25 C): 2.73 log10 K; log K of transfer, gas to solvent ([2]; Decan-1-ol, 25 C): 2.69 log10 K; log K of transfer, gas to solvent ([2]; Diethyl Ether, 25 C): 3.21 log10 K; log K of transfer, water to solvent ([3]; 2-Methylpropan-1-ol, 25 C): 2.61 log10 K; log K of transfer, water to solvent ([3]; 2-Methylpropan-2-ol, 25 C): 2.59 log10 K; log K of transfer, water to solvent ([3]; Butan-2-ol, 25 C): 2.61 log10 K; log K of transfer, water to solvent ([3]; Decan-1-ol, 25 C): 2.57 log10 K; log K of transfer, water to solvent ([3]; Di-n-butyl ether, 25 C): 2.89 log10 K; log K of transfer, water to solvent ([3]; Diethyl Ether, 25 C): 3.09 log10 K; log K of transfer, water to solvent ([3]; Propan-1-ol, 25 C): 2.51 log10 K
